Results published in ChEMBL document CHEMBL1201862, “PubChem BioAssay data set” (2004).
Calls of active or inactive are those of the source.

Tests used:
[1] = biological target: Dual specificity tyrosine-phosphorylation-regulated kinase 1A (Rattus norvegicus, UniProt Q63470); format: biochemical, Homo sapiens
[2] = biological target: T1, Zinc finger protein mex-5 (Caenorhabditis elegans, UniProt Q9XUB2); test: potency of MEX-5 RNA-binding blockers – biochemical, C. elegans, fluorescence polarization, dose response (AID 1960)
T1 sequence (Q9XUB2 whole entry): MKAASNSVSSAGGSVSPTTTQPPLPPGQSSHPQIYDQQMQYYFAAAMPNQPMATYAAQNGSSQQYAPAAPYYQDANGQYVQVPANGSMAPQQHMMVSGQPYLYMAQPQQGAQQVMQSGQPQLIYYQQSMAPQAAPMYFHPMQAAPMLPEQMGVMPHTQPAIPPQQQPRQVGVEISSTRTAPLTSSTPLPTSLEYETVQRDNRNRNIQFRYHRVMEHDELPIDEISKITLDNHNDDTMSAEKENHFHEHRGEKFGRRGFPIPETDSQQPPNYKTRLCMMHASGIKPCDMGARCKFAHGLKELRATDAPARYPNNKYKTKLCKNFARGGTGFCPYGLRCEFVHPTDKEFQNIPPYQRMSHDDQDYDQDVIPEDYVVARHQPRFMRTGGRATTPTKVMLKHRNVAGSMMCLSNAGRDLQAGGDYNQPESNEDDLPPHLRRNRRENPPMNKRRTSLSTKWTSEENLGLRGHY

[3] = biological target: T2, RNA-binding protein pos-1 (Caenorhabditis elegans, UniProt G5EF15); test: disruptors of C. elegans POS-1 RNA interaction – biochemical, fluorescence polarization, dose response (AID 1964);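 further: purified POS-1 fused to maltose binding protein made in E. coli; potency of compounds blocking POS-1 binding to fluorescent RNA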
T2 sequence (G5EF15 whole entry): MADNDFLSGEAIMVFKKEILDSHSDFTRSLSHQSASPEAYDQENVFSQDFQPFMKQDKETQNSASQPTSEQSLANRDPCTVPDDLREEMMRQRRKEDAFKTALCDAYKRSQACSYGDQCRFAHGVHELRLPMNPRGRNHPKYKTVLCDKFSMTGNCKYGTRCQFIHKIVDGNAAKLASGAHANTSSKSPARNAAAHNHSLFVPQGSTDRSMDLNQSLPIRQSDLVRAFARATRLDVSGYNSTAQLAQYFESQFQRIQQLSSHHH

[4] = biological target: Beta-galactosidase (Escherichia coli, UniProt Q8VNN2); test: PubChem AID 485352; format: functional
[5] = biological target: T3, Type-1 angiotensin II receptor (Homo sapiens, UniProt P30556); test: antagonism of angiotensin II type 1 receptor – cell-based, uHTS hits, selectivity assay for APJ receptor antagonist project, dose response (AID 463214); format: functional;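 further: antagonist potency against angiotensin II stimulated AT1 response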
T3 sequence (P30556 whole entry): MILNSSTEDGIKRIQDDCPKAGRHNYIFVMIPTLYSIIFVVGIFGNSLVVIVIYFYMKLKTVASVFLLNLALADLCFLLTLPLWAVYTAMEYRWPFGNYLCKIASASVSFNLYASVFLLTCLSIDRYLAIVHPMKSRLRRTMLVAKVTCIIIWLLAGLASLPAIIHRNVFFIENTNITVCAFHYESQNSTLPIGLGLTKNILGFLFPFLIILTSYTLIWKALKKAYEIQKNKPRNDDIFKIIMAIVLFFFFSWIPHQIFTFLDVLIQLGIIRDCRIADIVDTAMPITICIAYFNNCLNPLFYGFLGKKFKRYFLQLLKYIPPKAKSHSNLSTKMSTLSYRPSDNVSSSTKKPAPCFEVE

[6] = biological target: Glucose-6-phosphate 1-dehydrogenase (Homo sapiens, UniProt P11413); test: inhibition of Homo sapiens G6PD, dose series – biochemical, fluorescence, selectivity assay for P. falciparum G6PD inhibitor project, dose response (AID 504792); format: functional
[7] = NIH3T3 cell viability loss – ATP luminescence, mouse fibroblasts, counter-screen, dose response (AID 2010); format: functional, cell-based;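 further: cells exposed to compound for about 90 hours before reading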
[8] = Trypanosoma cruzi growth suppression in host cells – NIH3T3 host cells, beta-gal luminescence, confirmation (AID 2044); format: functional, cell-based;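 further: intracellular parasites grown in NIH/3T3 mouse fibroblasts as host cells; luminescent beta-galactosidase reporter signal from transgenic T. cruzi replicating inside host cells; inhibitors lower the luminescence signal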
[9] = biological target: Peroxisome proliferator-activated receptor gamma/Nuclear receptor coactivator 1 (Homo sapiens, UniProt P37231); test: (§1) TR-FRET dose response biochemical High Throughput Screening assay for agonists of the steroid receptor coactivator 1 (SRC-1) recruitment by the peroxisome proliferator-activated receptor gamma (PPAR gamma): non-selective agonists. [Related pubchem assays (depositor defined):AID1300, AID1808, AID504735, AID631]; format: protein assay
[10] = biological target: Peroxisome proliferator-activated receptor gamma/Nuclear receptor coactivator 3 (Homo sapiens, UniProt P37231); test: as §1, with “3 (SRC-3)” for “1 (SRC-1)”, “assays: 1301 (Confirmation screen.), 1048 (Primary screen.)]” for “assays (depositor defined):AID1300, AID1808, AID504735, AID631]”; format: functional
[11] = biological target: Peroxisome proliferator-activated receptor gamma/Nuclear receptor coactivator 2 (Homo sapiens, UniProt P37231); test: TR-FRET dose response biochemical High Throughput Screening assay for agonists of the steroid receptor coactivator 2 (SRC-2) recruitment by the peroxisome proliferator-activated receptor gamma (PPAR gamma): non-selective agonists. [Related pubchem assays: 1297, 1032 ]; format: functional
[12] = biological target: T4, Polyadenylate-binding protein 1 (Homo sapiens, UniProt P11940); test: MLLE domain peptide-binding blockers, IC50 – biochemical, fluorescence polarization, FITC-PAM2 peptide, dose response (AID 602259); format: functional; details: read-out: IC50_Mean
[13] = biological target: T4, Polyadenylate-binding protein 1; test: MLLE binding blockers, Cy5 peptide tracer – biochemical, fluorescence polarization, Cy5-PAM2 peptide, secondary, miRNA deadenylation inhibitor project, dose response (AID 602260); format: functional; details: read-out: IC50_Mean
[14] = biological target: T5, High affinity choline transporter 1 (Homo sapiens, UniProt Q9GZV3); test: human choline transporter blockers, potency – cell-based, 5-point CRC, membrane potential dye, dose response (AID 504840); format: functional
T5 sequence (Q9GZV3 whole entry): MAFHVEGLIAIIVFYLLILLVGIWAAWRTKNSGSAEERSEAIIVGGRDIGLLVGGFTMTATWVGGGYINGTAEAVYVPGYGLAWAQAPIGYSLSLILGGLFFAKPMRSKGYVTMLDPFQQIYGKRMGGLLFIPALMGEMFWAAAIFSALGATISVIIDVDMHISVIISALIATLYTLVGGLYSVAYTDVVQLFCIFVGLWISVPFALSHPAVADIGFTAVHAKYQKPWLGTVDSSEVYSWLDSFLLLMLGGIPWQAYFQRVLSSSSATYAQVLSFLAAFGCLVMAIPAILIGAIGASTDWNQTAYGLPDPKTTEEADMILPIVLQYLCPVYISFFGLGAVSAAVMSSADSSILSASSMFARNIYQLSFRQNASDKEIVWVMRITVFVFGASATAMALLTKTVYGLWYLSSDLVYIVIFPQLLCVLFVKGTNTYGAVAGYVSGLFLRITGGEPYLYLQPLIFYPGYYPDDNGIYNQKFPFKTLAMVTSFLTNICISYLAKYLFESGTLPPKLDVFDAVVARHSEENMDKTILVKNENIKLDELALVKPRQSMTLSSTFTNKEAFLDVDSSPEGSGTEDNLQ

[15] = fluconazole-exposed Candida albicans growth modulators – fluorescence, retest, confirmation (AID 2467); format: functional, cell-based
[16] = NIH-3T3 fibroblast cytotoxicity, dose response, cytotoxicity control, cell-based, fluorescence, Alamar Blue, secondary assay (AID 2327); format: functional;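 further: NIH-3T3 mouse fibroblasts cultured with fluconazole at 8 µg/mL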
[17] = test system: Streptococcus sp. 'group A'; test: Streptococcus pyogenes SK(-)GAS viability under kanamycin – luminescence, BacTiterGlo, confirmation, counter-screen for streptokinase expression inhibitor project, dose response (AID 1900); format: functional, organism-based
[18] = biological target: T6, Short transient receptor potential channel 4 (Mus musculus, UniProt Q9QUQ5); test: calcium entry via TRPC4 opening agents – cell-based, HEK293 TRPC4/mu-opioid, Fluo-4 calcium, dose response (AID 434937); format: functional
T6 sequence (Q9QUQ5 whole entry): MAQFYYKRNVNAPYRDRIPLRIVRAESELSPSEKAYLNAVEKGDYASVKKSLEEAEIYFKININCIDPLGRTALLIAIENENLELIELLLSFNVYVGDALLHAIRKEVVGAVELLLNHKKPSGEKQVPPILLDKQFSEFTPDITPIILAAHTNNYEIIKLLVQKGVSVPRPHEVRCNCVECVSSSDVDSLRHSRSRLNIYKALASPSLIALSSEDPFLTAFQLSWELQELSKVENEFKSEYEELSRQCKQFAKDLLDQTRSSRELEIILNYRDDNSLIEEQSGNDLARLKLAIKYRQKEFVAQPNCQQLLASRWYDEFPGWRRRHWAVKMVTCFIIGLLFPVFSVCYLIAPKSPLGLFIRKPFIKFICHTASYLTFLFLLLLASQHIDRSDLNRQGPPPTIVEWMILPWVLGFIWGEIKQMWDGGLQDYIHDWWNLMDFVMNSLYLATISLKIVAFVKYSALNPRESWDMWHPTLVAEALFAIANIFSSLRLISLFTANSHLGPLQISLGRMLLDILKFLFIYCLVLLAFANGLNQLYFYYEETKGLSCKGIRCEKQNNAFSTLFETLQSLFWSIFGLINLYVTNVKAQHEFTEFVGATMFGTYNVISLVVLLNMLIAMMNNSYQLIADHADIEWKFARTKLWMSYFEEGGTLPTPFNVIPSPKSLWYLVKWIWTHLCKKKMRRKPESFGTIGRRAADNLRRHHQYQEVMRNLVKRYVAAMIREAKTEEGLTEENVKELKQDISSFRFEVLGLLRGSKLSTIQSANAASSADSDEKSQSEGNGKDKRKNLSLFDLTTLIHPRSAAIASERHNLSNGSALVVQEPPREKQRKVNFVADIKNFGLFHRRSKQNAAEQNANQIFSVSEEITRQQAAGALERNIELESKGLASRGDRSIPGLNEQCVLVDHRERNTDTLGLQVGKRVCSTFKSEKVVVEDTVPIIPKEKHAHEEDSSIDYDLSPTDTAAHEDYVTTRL

[19] = test system: Streptococcus; test: GAS UMAA2166 growth inhibition – luminescence, BacTiterGlo, counter-screen for streptokinase expression inhibitor project, dose response (AID 1915); format: functional, organism-based;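 further: potency for reduction of bacterial viability or growth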
[20] = cells; format: functional
[21] = THP-1 cell cytotoxicity, dose response, cytotoxicity control for non-replicating M. tuberculosis project (AID 489025); format: functional
[22] = biological target: Genome polyprotein (dengue virus type 2, UniProt P29990); test: flavivirus cap methylation enzyme inhibition – biochemical, confirmation dose response, primary screen (AID 588689); format: functional
[23] = test system: Vero; test: viability of Vero cells under compound – cytotoxicity control for flavivirus capping enzyme inhibitors (AID 588742); format: functional; details: Chlorocebus sabaeus

Peroxisome proliferator-activated receptor gamma/Nuclear receptor coactivator 1, sequence (P37231 whole entry): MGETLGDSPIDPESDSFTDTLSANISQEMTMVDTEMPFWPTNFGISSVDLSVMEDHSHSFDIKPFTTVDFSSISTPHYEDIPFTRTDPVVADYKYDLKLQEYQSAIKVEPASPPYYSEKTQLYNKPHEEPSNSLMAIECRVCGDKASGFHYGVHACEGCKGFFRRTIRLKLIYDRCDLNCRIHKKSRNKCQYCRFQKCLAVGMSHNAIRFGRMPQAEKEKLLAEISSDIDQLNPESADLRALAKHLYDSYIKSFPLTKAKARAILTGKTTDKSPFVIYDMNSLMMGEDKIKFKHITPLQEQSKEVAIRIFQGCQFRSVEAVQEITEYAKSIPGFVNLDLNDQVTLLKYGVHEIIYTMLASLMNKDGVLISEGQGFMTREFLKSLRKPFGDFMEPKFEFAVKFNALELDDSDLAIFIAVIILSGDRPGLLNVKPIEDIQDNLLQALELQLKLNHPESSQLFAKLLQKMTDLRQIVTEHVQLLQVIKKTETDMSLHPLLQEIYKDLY
Peroxisome proliferator-activated receptor gamma/Nuclear receptor coactivator 1, sequence (Q15788 whole entry, further chain): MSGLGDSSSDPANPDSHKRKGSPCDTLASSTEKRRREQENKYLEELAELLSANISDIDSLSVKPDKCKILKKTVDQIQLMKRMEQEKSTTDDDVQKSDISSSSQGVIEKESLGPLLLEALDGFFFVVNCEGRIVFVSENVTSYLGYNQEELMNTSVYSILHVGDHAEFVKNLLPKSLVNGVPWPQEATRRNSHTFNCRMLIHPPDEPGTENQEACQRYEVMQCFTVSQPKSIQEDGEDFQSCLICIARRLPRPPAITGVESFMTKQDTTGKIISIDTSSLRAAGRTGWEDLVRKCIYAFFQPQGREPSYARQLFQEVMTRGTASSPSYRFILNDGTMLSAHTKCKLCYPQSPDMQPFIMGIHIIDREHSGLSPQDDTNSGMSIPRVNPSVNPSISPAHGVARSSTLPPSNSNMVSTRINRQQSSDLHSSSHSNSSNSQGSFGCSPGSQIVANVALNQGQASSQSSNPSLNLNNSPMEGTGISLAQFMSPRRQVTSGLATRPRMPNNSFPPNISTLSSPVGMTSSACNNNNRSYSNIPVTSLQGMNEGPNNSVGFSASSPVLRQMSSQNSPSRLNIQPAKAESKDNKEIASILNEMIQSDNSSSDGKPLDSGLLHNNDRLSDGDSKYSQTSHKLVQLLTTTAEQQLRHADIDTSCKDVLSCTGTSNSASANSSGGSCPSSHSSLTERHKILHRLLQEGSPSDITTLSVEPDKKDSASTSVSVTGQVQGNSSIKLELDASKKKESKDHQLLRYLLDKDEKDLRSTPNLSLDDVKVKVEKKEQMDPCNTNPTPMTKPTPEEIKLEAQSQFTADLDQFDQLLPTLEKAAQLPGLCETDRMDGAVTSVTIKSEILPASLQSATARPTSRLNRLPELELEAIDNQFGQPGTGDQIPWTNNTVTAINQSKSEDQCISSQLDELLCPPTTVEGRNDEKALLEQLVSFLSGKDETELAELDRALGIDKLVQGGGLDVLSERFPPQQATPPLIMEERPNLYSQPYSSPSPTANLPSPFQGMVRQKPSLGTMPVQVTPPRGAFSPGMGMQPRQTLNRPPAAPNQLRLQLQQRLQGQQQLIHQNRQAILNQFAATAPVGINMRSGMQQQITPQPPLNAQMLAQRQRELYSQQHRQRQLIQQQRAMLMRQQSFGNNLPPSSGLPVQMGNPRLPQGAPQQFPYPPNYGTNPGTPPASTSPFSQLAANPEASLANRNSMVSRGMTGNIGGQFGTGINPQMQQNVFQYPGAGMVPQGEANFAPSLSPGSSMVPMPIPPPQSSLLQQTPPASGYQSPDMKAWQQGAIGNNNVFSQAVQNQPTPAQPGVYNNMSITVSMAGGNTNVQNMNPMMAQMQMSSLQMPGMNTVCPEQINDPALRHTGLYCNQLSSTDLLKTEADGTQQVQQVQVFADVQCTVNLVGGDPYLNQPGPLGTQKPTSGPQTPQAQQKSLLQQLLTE
Peroxisome proliferator-activated receptor gamma/Nuclear receptor coactivator 2, sequence (P37231 whole entry, the tested form may be a part): as the sequence (P37231 whole entry) above
Peroxisome proliferator-activated receptor gamma/Nuclear receptor coactivator 2, sequence (Q15596 whole entry, further chain, the tested form may be a part): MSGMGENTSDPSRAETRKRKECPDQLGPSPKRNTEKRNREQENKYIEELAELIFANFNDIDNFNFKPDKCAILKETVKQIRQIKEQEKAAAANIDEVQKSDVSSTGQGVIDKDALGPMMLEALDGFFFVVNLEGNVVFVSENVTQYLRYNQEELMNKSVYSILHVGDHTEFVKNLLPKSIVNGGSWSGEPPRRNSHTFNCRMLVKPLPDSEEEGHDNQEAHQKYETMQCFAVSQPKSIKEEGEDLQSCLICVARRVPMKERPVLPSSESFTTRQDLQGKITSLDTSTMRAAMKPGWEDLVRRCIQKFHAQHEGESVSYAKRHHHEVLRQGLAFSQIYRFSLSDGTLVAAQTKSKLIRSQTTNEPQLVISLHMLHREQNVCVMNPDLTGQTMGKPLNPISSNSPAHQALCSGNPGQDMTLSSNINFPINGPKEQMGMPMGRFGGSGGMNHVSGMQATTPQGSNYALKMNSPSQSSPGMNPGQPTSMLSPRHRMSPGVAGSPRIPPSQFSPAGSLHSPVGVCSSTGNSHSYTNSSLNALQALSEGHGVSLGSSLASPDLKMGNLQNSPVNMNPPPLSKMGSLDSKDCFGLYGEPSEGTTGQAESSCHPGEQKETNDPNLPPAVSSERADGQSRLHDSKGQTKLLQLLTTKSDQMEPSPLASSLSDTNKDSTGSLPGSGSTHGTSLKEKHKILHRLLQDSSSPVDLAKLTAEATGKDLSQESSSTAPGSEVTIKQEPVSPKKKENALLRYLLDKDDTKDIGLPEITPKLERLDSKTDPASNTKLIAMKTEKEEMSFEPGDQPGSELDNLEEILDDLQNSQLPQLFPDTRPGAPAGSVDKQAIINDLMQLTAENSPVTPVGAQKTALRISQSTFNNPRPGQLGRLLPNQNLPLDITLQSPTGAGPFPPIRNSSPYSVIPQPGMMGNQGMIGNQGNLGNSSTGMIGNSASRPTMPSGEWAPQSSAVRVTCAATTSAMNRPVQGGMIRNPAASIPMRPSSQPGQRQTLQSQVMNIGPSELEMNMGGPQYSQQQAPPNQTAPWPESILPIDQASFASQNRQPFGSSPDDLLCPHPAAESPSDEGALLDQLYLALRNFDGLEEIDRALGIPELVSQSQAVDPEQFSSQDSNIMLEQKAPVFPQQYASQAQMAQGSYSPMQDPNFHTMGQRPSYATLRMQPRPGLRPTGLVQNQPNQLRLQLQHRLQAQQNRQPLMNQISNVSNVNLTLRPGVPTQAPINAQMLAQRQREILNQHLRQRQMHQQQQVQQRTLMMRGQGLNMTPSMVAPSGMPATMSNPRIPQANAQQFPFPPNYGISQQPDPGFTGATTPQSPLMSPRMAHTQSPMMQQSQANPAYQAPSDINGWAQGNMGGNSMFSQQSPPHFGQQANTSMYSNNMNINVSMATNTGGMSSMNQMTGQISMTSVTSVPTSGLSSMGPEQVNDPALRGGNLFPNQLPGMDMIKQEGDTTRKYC
Beta-galactosidase, sequence (Q8VNN2 whole entry): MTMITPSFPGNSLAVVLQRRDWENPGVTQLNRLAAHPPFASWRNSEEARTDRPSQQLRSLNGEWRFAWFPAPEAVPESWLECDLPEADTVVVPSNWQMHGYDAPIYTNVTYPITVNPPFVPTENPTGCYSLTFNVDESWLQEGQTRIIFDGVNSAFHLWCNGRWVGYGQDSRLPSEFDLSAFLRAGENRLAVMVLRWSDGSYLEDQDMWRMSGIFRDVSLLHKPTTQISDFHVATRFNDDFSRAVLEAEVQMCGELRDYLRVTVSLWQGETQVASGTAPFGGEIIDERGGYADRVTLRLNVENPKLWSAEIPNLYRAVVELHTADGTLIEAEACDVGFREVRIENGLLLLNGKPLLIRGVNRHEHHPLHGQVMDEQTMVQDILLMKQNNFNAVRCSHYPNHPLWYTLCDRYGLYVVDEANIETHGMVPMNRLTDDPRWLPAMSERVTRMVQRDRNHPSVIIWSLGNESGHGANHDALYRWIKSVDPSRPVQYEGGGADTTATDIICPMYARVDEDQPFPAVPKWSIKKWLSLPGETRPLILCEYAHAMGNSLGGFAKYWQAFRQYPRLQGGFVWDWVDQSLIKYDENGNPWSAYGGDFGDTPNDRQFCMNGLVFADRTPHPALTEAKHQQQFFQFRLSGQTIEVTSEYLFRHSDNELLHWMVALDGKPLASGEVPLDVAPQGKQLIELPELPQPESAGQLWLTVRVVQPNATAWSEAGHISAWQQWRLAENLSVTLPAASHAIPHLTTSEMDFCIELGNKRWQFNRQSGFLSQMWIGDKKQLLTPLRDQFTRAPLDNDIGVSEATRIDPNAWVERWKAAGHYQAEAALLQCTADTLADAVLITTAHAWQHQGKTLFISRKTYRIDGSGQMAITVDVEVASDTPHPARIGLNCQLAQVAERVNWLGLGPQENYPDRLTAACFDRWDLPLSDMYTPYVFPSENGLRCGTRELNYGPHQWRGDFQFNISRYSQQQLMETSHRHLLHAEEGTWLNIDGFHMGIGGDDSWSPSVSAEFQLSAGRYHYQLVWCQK

## CC(=O)Nc1ccc(/C=C/c2nc3ccccc3o2)cc1
[1]
  AC50: 1.2 µM (active)

## CC(NC(=O)COc1ccccc1)C(=O)OCC(=O)c1cc2ccccc2o1 (stereo not given)
[2]
  EC50: > 300 µM (not active)
[3]
  EC50: > 300 µM (not active)
[4]
  EC50: > 40 µM (inactive)
[5]
  IC50: 13.8 µM (active)

## CC1=C(n2nnc([N+](=O)[O-])n2)C(c2cccnc2)C(C#N)=C(N)O1 (stereo not given)
[6]
  IC50: 65 µM (inactive)
[7]
  EC50: > 60 µM (inconclusive)
[8]
  EC50: 209 nM (active)

## O=C(C[n+]1ccc(-c2cc(C(=O)Nc3cccc(C(F)(F)F)c3)c3ccccc3n2)cc1)c1cccc([N+](=O)[O-])c1
[4]
  EC50: > 40 µM (inactive)
[5]
  IC50: 26 µM (not active)

## CCC(OC(=O)c1cc2sccc2n1C)C(=O)NCc1ccco1 (stereo not given)
[9]
  EC50: > 79.4 µM (inactive)
[10]
  EC50: > 79.4 µM (not active)
[11]
  EC50: > 26.5 µM (not active)

## N#CCCN1CCN(C(=S)c2ccc(-c3ccc(Cl)cc3)o2)CC1
[9]
  EC50: > 79.4 µM (inactive)
[10]
  EC50: > 79.4 µM (not active)
[11]
  EC50: > 79.4 µM (not active)

## NC(=S)c1ccc(C(N)=S)o1
[12]
  IC50: > 66 µM (inactive)
[13]
  IC50: > 66 µM (inactive)
[1]
  AC50: 14.3 µM (active)

## C[C@H](NC(=O)OC(C)(C)C)c1nnc(SCC(=O)c2ccc(Cl)cc2)o1
[14]
  IC50: 1.91 µM (active)

## O=C(CCc1ccccc1)NNC(=S)NC(=O)c1ccc(Cl)cc1
[15]
  EC50: 2.16 µM (active)
[16]
  EC50: > 150 µM (inconclusive)
[17]
  EC50: 335 nM (active)
[18]
  EC50: 5.31 µM (active)
[19]
  EC50: 6.45 µM (active)

## CCn1c(=O)cc(SCC(=O)N2CCN(c3ccccc3OC)CC2)c2ccccc21
[9]
  EC50: > 79.4 µM (inactive)
[10]
  EC50: > 79.4 µM (not active)
[11]
  EC50: > 79.4 µM (not active)

## Cc1cc(Cl)cc(C)c1OCCCCn1ccnc1
[20]
  IC50: 15.5 µM (active)
[21]
  CC50: 38.2 µM (active)
[18]
  EC50: 3.76 µM (active)

## COc1ccc(-n2c(=S)[nH]c3cc(C(=O)NCCCN4CCOCC4)ccc3c2=O)cc1
[14]
  IC50: 10.3 µM (active)

## O=c1cc(-c2ccccc2)oc2cc(O)c(O)c(O)c12 [BAICALEIN]
[22]
  IC50: 35.1 µM (active)
[23]
  CC50: > 40 µM (active)
[1]
  AC50: 14.5 µM (active)
